SMILES strings stand for the structures.

For experiment [1], the system named is ATN-1 (T-Lymphoblastic Leukemia). The experiment in a line: Bliss excess, mean over the matrix (fraction); higher = more synergy. In a few lines:
(§1)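 Cell lines grown in DMEM/F12 or RPMI with 10% FBS were plated in 1536-well plates and held 24 hours at 37°C, 5% CO2 before 72 hours of exposure to two-drug dose matrices, with DMSO typically at 0.2%. CellTiter-Glo 2.0 luminescence gave viability, which was converted to inhibition. Vehicle wells were set to 0 and blank wells to 1. Combination Emax is the second-highest inhibition in the matrix, and Bliss excess is the observed combination effect minus the expected EA + EB − EA·EB, where EA and EB are the single-agent effects.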

Experiment [2] deals with Daudi (Burkitt's Lymphoma). The description is as above. An outline of the steps:
as §1

In experiment [3] the test system is GCIY (Gastric Carcinoma). The experiment is described as above. An outline of the steps: as §1
For experiment [4], the system named is GRANTA-519 (B-Cell Non-Hodgkin's Lymphoma). The experiment is described as above. An outline of the steps: as §1
Experiment [5] deals with JURL-MK1 (Chronic Myelogenous Leukemia). Described as above. In a few lines: as §1
Experiment [6] deals with M14 (Melanoma). The description is as above. An outline of the steps:
as §1

Experiment [7] deals with MRK-nu-1 (Breast Carcinoma). The experiment is described as above. An outline of the steps: as §1
The test system of experiment [8] is NCI-H1048 (Small Cell Lung Carcinoma). The experiment is described as above. An outline of the steps: as §1
The subject of experiment [9] is NCI-H1435 (Non-Small Cell Lung Carcinoma). The experiment is described as above. An outline of the steps:
as §1

The subject of experiment [10] is NCI-H1944 (Lung Adenocarcinoma). The description is as above. In a few lines: as §1
Experiment [11] concerns NCI-H1975 (Lung Adenocarcinoma). The experiment is described as above. In a few lines: as §1
In experiment [12] the test system is NCI-H835 (Other Solid Carcinomas). The experiment is described as above. An outline of the steps: as §1
Experiment [13] relates to NTERA-2-cl-D1 (Other Solid Carcinomas). The description is as above. In a few lines: as §1
Experiment [14] concerns OVKATE (Ovarian Carcinoma). Described as above. An outline of the steps: as §1
Experiment [15] relates to RPMI-8402 (T-Lymphoblastic Leukemia). The description is as above. An outline of the steps:
as §1

Experiment [16] has as its system SBC-3 (Small Cell Lung Carcinoma). The description is as above. An outline of the steps:
as §1

The test system of experiment [17] is SNU-1 (Gastric Carcinoma). The description is as above. An outline of the steps:
as §1

Experiment [18] deals with M14 (Melanoma). Put plainly: combination Emax (second highest fraction inhibited in the dose matrix, 72 h); higher = more inhibition; extreme values may be limits of the assay. An outline of the steps: as §1
Experiment [19] concerns RVH-421 (Melanoma). Put plainly: Bliss excess, mean over the matrix (fraction); higher = more synergy. An outline of the steps:
as §1

For experiment [20], the system named is RVH-421 (Melanoma). The experiment in a line: combination Emax (second highest fraction inhibited in the dose matrix, 72 h); higher = more inhibition; extreme values may be limits of the assay. An outline of the steps: as §1
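Throughout, for Bliss excess, mean over the matrix: after 72 h of two-drug dosing.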

Take `CN(C)CCCOc1ccc(-c2ccc3ncc4c(c3c2)n(C2CCOCC2)c(=O)n4C)cn1` [AZD0156] + O=C(c1cc(Cc2n[nH]c(=O)c3ccccc23)ccc1F)N1CCN(C(=O)C2CC2)CC1 [Olaparib] (first compound max 3 µM, partner max 3 µM): the Bliss excess in experiment [1] stood at 0.011; in [2], 0.0672; in [3], 0.0703; in experiment [4], 0.0079; in experiment [5] it was 0.157; in [6] it was 0.0435. In addition, the Bliss excess was -0.0198 in experiment [7]; 0.0772 in experiment [8]; -0.0277 in experiment [9]; 0.106 in [10]; 0.0548 in [11]; 0.0053 in experiment [12]. For the same molecule, the Bliss excess in [13] stood at 0.0068; in experiment [14], 0.0008; in [15], 0.244; in [16] it was 0.206; in experiment [17], 0.032. For the same molecule, in experiment [18], the “combination Emax” value was 0.365.

As for `COc1cccc(OCCCN)c1-c1cc(Nc2cnc(C#N)cn2)n[nH]1` [Prexasertib] + O=C(c1cc(Cc2n[nH]c(=O)c3ccccc23)ccc1F)N1CCN(C(=O)C2CC2)CC1 [Olaparib] (first compound max 1 µM, 7x7, partner max 10 µM), the Bliss excess was -0.0078 in [1]; -0.058 in experiment [2]; -0.0476 in experiment [3]; -0.105 in [4]; -0.0042 in experiment [5]; -0.0392 in experiment [7]. The Bliss excess was -0.0073 in experiment [8]; 0.0045 in experiment [9]; -0.0498 in experiment [10]; 0.0284 in [11]; -0.045 in [12]; 0.0401 in experiment [13]. For the same molecule, the Bliss excess is -0.062 in [14]; -0.0292 in [15]; -0.0491 in experiment [19]; -0.0544 in [16]; -0.0533 in experiment [17]. In experiment [20], the “combination Emax” value was 0.3.

With `CCc1c2c(nc3ccc(O)cc13)-c1cc3c(c(=O)n1C2)COC(=O)[C@]3(O)CC` [SN-38] + CN(C)CCCOc1ccc(-c2ccc3ncc4c(c3c2)n(C2CCOCC2)c(=O)n4C)cn1 [AZD0156] (first compound max 0.3 µM, 7x7, partner max 1 µM), the Bliss excess is 0.0407 in experiment [1]; 0.0078 in experiment [2]; 0.0057 in experiment [3]; -0.0359 in experiment [4]; 0.0551 in [5]; -0.0534 in experiment [7]. Besides, the Bliss excess was 0.0147 in experiment [8]; -0.026 in [9]; -0.0343 in experiment [10]; 0.006 in [11]; -0.0382 in experiment [12]; -0.0591 in [13]. The Bliss excess in [14] was -0.0763; in [15], 0.073; in experiment [19], -0.0576; in experiment [16], -0.0894; in experiment [17], 0.0303. Moreover, in experiment [20], the “combination Emax” value stood at 0.191.

The record behind these values is the supplement of paper PMC11061612.
